Among the data in article PMC8508980, “Design, Synthesis and Anticancer Profile of New 4-(1H-benzo[d]imidazol-1-yl)pyrimidin-2-amine-Linked Sulfonamide Derivatives with V600EBRAF Inhibitory Effect” (International Journal of Molecular Sciences, 2021) are IC50 values, retold here.

One assay has as its system A375 cells. As to the kind of experiment: Antiproliferative MTT assay. It counts as cell-based. The conditions noted are these: Homo sapiens, A-375, 48 h, mean ± S.D. of two experiments. As for the experimental part:
(§1) The effect of final target compounds over A375 and SK-MEL-5 was performed using reported procedures (detailed procedure is located in the Supplementary Information page 51s). […]
(§2) Evaluation of the Antiproliferative Activity Against A375 and SK-MEL-5
(§3) A375 and SK-MEL-5 cells were purchased from American Type Culture Collection (ATCC, Ro ckv ille, MD, USA) and maintained in Dulbecco’s modified eagle medium (DMEM, Welgene, Daegu, Republic of Korea) supplemented with 10% fetal bovine serum (FBS, Welgene, Daegu, Republic of Korea) and 1% penicillin/streptomycin (Welgene, Daegu, Republic of Korea) in a hu midified atmo sphere with 5% CO2 at 37 °C. Both cells were taken from culture substrate with 0.05% trypsin-0.02% EDTA and plated at a density of 5 × 10^3 cells/well in 96 well plates and then incubated at 37 °C fo r 24 h in a hu midified atmo sphere with 5% CO2 prior to treatment with various concentrations (3-fold serial dilution, 12 points) of the tested compounds. The cells were incubated for 48 h after treatment with the test compounds. The cell viability was assessed by the conventional 3-(4,5-dimethylthiazol-2-yl)-2,5-diphenyltetrazolium bromide (MTT) reduction assay. MTT assays were carried out with CellTiter 96® (Promega) according to the manufacturer’s instructions. The absorbance at 590 nm was recorded using EnVision 2103 (Perkin Elmer; Bo ston , MA, USA). The IC50 values were calculated using GraphPad Prism 4.0
Background: Tetrazolium dyes change colour on reduction, which living cells bring about.

A further assay concerns SK-MEL-5 cells. As to the kind of experiment: Antiproliferative MTT assay. The class given is cell-based. As to conditions: Homo sapiens, 48 h, mean ± S.D. of two experiments. As to the method: as §1, §2, §3

As a reminder, the IC50 is the midpoint of a concentration-inhibition curve. Read a high IC50 as weaker potency in that assay.

`CNC(=O)c1cc(Oc2ccc(NC(=O)Nc3ccc(Cl)c(C(F)(F)F)c3)cc2)ccn1` [Sorafenib, reference compound]: the IC50 in the assay with A375 cells was 5.25 ± 0.74 µM; in the assay on SK-MEL-5 cells it was 9.22 ± 0.81 µM.
